ChEMBL document CHEMBL5331130, “Analysis of Structure-Activity Relationships of Novel Inhibitors of the Macrophage Infectivity Potentiator (Mip) Proteins of Neisseria meningitidis, Neisseria gonorrhoeae, and Burkholderia pseudomallei” (J Med Chem, 2023)
Activity calls are given as the source filed them. The rule behind the calls is not given here.

Key:
Neisseria gonorrhoeae = assay: Antimicrobial activity against Neisseria gonorrhoeae infected in mouse RAW264.7 cells assessed as reduction in bacteria-induced cytotoxicity at 50 uM after 24 hrs by lactate dehydrogenase release assay relative to control; type: functional; set-up: scale not given: the % may be the effect or the level left
[1] = system: Burkholderia pseudomallei; assay: Antimicrobial activity against Burkholderia pseudomallei K96243 infected in mouse RAW264.7 cells assessed as reduction in bacteria-induced cytotoxicity at 50 uM after 24 hrs by lactate dehydrogenase release assay relative to control; type: functional; set-up: scale not given: the % may be the effect or the level left
Neisseria meningitidis [2] = assay: Inhibition of Neisseria meningitidis Mip PPIase activity assessed as remaining activity using Suc-ALPF-pNA substrate measured at 400 nM by protease coupled assay relative to control
[3] = system: Burkholderia pseudomallei; assay: Inhibition of Burkholderia pseudomallei Mip PPIase activity assessed as remaining activity using Suc-ALPF-pNA substrate measured at 400 nM by protease coupled assay relative to control
[4] = Binding affinity to Burkholderia pseudomallei Mip measured after 1 hr by fluorescence polarization assay
Neisseria meningitidis [5] = assay: Antimicrobial activity against Neisseria meningitidis infected in mouse RAW264.7 cells assessed as reduction in bacteria-induced cytotoxicity at 50 uM after 24 hrs by lactate dehydrogenase release assay relative to control; type: functional; set-up: scale not given: the % may be the effect or the level left
Neisseria meningitidis [6] = assay: Inhibition of Neisseria meningitidis Mip NEIS0004 assessed as remaining activity using Suc-ALPF-pNA substrate measured at 400 nM by protease coupled assay relative to control

## O=C(O[C@@H](Cc1ccccc1)C(=O)NCc1cccnc1)C1CCCCN1S(=O)(=O)Cc1ccccc1 (mixture of isomers)
Neisseria gonorrhoeae
  Activity: 65.1%
[1]
  Activity: 68.5%
Neisseria meningitidis [2]
  Activity: 14%
[3]
  Activity: 15.9%
[4]; read-out: Ki
  Ki: 0.0488 µM
Neisseria meningitidis [5]
  Activity: 38.4%
Neisseria meningitidis [6]
  Activity: 6.9%

## COCCOc1cc(OCCOC)cc(C(=O)NCCOC(=O)[C@@H]2CCCCN2S(=O)(=O)Cc2ccccc2)c1
Neisseria gonorrhoeae
  Activity: 21.5%
[1]
  Activity: 71%
Neisseria meningitidis [2]
  Activity: 85%
[3]
  Activity: 52.3%
[4]; read-out: Ki
  Ki: 1.06 µM
Neisseria meningitidis [5]
  Activity: 19.6%
Neisseria meningitidis [6]
  Activity: 88.9%

## O=C(NCc1cccnc1)[C@H](Cc1ccccc1)OC(=O)[C@@H]1CCCCN1S(=O)(=O)c1ccccc1
Neisseria gonorrhoeae
  Activity: 64.6%
[1]
  Activity: 72.5%
Neisseria meningitidis [2]
  Activity: 10%
[3]
  Activity: 7%
[4]; read-out: Ki
  Ki: 0.122 µM
Neisseria meningitidis [5]
  Activity: 41.5%
Neisseria meningitidis [6]
  Activity: 6.7%

## CC[C@H](C)[C@H](OC(=O)C1CCCCN1S(=O)(=O)Cc1ccccc1)C(=O)NCc1cccnc1 (mixture of isomers)
Neisseria gonorrhoeae
  Activity: 35.4%
[1]
  Activity: 94.3%
Neisseria meningitidis [2]
  Activity: 73.3%
[3]
  Activity: 16.8%
[4]; read-out: Ki
  Ki: 3.13 µM
Neisseria meningitidis [5]
  Activity: 58%
Neisseria meningitidis [6]
  Activity: 9.4%

## O=C(NCc1cccnc1)[C@@H](Cc1ccccc1)OC(=O)[C@@H]1CCCCN1S(=O)(=O)c1ccccc1
Neisseria gonorrhoeae
  Activity: 73.2%
[1]
  Activity: 65.9%
Neisseria meningitidis [2]
  Activity: 51.1%
[3]
  Activity: 151%
[4]; read-out: Ki
  Ki: 41.1 µM
Neisseria meningitidis [5]
  Activity: 26%
Neisseria meningitidis [6]
  Activity: 106%

## O=C(NCc1cccnc1)C(CCc1ccccc1)COC(=O)[C@H]1CCCCN1S(=O)(=O)Cc1ccccc1 (mixture of isomers)
[1]
  Activity: 95.7%
Neisseria meningitidis [2]
  Activity: 93.7%
[3]
  Activity: 140%
[4]
  Ki: Not Active
Neisseria meningitidis [5]
  Activity: 21.2%
Neisseria meningitidis [6]
  Activity: 119%

## O=C(NCc1cccnc1)[C@H](CCc1ccccc1)NC(=O)[C@@H]1CCCCN1S(=O)(=O)Cc1ccccc1
Neisseria gonorrhoeae
  Activity: 71.5%
[1]
  Activity: 75.4%
Neisseria meningitidis [2]
  Activity: 44.8%
[3]
  Activity: 17.6%
[4]; read-out: Ki
  Ki: 0.0105 µM
Neisseria meningitidis [5]
  Activity: 34.1%
Neisseria meningitidis [6]
  Activity: 12.9%

## O=C(NCc1cccnc1)[C@H](Cc1ccccc1)NC(=O)[C@@H]1CCCCN1S(=O)(=O)Cc1ccccc1
Neisseria gonorrhoeae
  Activity: 40.9%
[1]
  Activity: 63.4%
Neisseria meningitidis [2]
  Activity: 27.3%
[3]
  Activity: 23.7%
[4]; read-out: Ki
  Ki: 0.0347 µM
Neisseria meningitidis [5]
  Activity: 25%
Neisseria meningitidis [6]
  Activity: 8.5%

## O=C(NCc1ccc[n+]([O-])c1)[C@H](Cc1ccc(F)cc1)NC(=O)[C@@H]1CCCCN1S(=O)(=O)Cc1ccc(F)cc1
Neisseria gonorrhoeae
  Activity: 44.2%
[1]
  Activity: 51.7%
Neisseria meningitidis [2]
  Activity: 49.4%
[3]
  Activity: 40.9%
[4]; read-out: Ki
  Ki: 1.31 µM
Neisseria meningitidis [5]
  Activity: 52.8%
Neisseria meningitidis [6]
  Activity: 24%

## O=C(NCc1cccnc1)[C@@H](NC(=O)[C@@H]1CCCCN1S(=O)(=O)Cc1ccccc1)c1ccc(F)cc1
Neisseria gonorrhoeae
  Activity: 28%
[1]
  Activity: 78.5%
Neisseria meningitidis [2]
  Activity: 63.5%
[3]
  Activity: 11.3%
[4]; read-out: Ki
  Ki: 0.0732 µM
Neisseria meningitidis [5]
  Activity: 22.6%
Neisseria meningitidis [6]
  Activity: 27.2%

## C#CCOc1ccc(C[C@H](NC(=O)[C@@H]2CCCCN2S(=O)(=O)Cc2ccc(F)cc2)C(=O)NCc2cccnc2)cc1
Neisseria gonorrhoeae
  Activity: 35.2%
[1]
  Activity: 55.4%
Neisseria meningitidis [2]
  Activity: 12.3%
[3]
  Activity: 4.4%
[4]; read-out: Ki
  Ki: 0.0343 µM
Neisseria meningitidis [5]
  Activity: 45.7%
Neisseria meningitidis [6]
  Activity: 4.9%

## O=C(NCc1cccnc1)[C@@H](NC(=O)[C@@H]1CCCCN1S(=O)(=O)Cc1ccc(F)cc1)c1ccc(F)cc1
Neisseria gonorrhoeae
  Activity: 31.4%
[1]
  Activity: 46.7%
Neisseria meningitidis [2]
  Activity: 43.3%
[3]
  Activity: 13.5%
[4]; read-out: Ki
  Ki: 0.017 µM
Neisseria meningitidis [5]
  Activity: 51.4%
Neisseria meningitidis [6]
  Activity: 30.6%

## O=C(NCc1cccnc1)[C@@H](CCc1ccccc1)NC(=O)[C@@H]1CCCCN1S(=O)(=O)Cc1ccccc1
Neisseria gonorrhoeae
  Activity: 41.9%
[1]
  Activity: 88.7%
Neisseria meningitidis [2]
  Activity: 83.7%
[3]
  Activity: 23.4%
[4]; read-out: Ki
  Ki: 0.32 µM
Neisseria meningitidis [5]
  Activity: 69.9%
Neisseria meningitidis [6]
  Activity: 39.9%

## O=C(N[C@@H](Cc1ccccc1)C(=O)NCc1ccc[n+]([O-])c1)C1CCCCN1S(=O)(=O)Cc1ccccc1 (mixture of isomers)
Neisseria gonorrhoeae
  Activity: 45.4%
[1]
  Activity: 46.2%
Neisseria meningitidis [2]
  Activity: 66.7%
[3]
  Activity: 51.9%
[4]; read-out: Ki
  Ki: 4.45 µM
Neisseria meningitidis [5]
  Activity: 76%
Neisseria meningitidis [6]
  Activity: 45.5%

## O=C(NCc1cccnc1)[C@@H](Cc1ccccc1)NC(=O)[C@@H]1CCCCN1S(=O)(=O)Cc1ccccc1
Neisseria gonorrhoeae
  Activity: 70.6%
[1]
  Activity: 30.4%
Neisseria meningitidis [2]
  Activity: 87.9%
[3]
  Activity: 21.5%
[4]; read-out: Ki
  Ki: 0.626 µM
Neisseria meningitidis [5]
  Activity: 60.8%
Neisseria meningitidis [6]
  Activity: 45.4%

## CC(C)C[C@H](OC(=O)C1CCCCN1S(=O)(=O)Cc1ccccc1)C(=O)NCc1cccnc1 (mixture of isomers)
[1]
  Activity: 93.2%
Neisseria meningitidis [2]
  Activity: 22.1%
[3]
  Activity: 17.4%
[4]; read-out: Ki
  Ki: 0.0158 µM
Neisseria meningitidis [5]
  Activity: 36.9%
Neisseria meningitidis [6]
  Activity: 3.4%

## O=C(NCc1cccnc1)[C@H](Cc1ccc(F)cc1)NC(=O)[C@@H]1CCCCN1S(=O)(=O)Cc1ccc(F)cc1
Neisseria gonorrhoeae
  Activity: 50.8%
[1]
  Activity: 68%
Neisseria meningitidis [2]
  Activity: 11.5%
[3]
  Activity: 12.5%
[4]; read-out: Ki
  Ki: 0.0188 µM
Neisseria meningitidis [5]
  Activity: 47.9%
Neisseria meningitidis [6]
  Activity: 37.2%

## CC(C)C[C@@H](OC(=O)[C@@H]1CCCCN1S(=O)(=O)Cc1ccccc1)C(=O)NCc1cccnc1
Neisseria meningitidis [2]
  Activity: inactive
[3]
  Activity: inactive
[4]; read-out: Ki
  Ki: 2.52 µM
Neisseria meningitidis [6]
  Activity: inactive

## O=C(O[C@H](Cc1ccccc1)C(=O)NCc1cccnc1)[C@H]1CCCCN1S(=O)(=O)c1ccccc1
Neisseria gonorrhoeae
  Activity: 58.6%
[1]
  Activity: 74.3%
Neisseria meningitidis [2]
  Activity: 51.3%
[3]
  Activity: 155%
[4]
  Ki: Not Active
Neisseria meningitidis [5]
  Activity: 21%
Neisseria meningitidis [6]
  Activity: 108%

## O=C(NCc1cccnc1)[C@H](Cc1ccccc1)OC(=O)[C@H]1CCCCN1S(=O)(=O)c1ccccc1
Neisseria gonorrhoeae
  Activity: 68.4%
[1]
  Activity: 82.7%
Neisseria meningitidis [2]
  Activity: 27.2%
[3]
  Activity: 147%
[4]; read-out: Ki
  Ki: 42.4 µM
Neisseria meningitidis [5]
  Activity: 35.2%
Neisseria meningitidis [6]
  Activity: 122%

## CC(C)C[C@H](NC(=O)[C@@H]1CCCCN1S(=O)(=O)Cc1ccc(F)cc1)C(=O)NCc1cccnc1
Neisseria gonorrhoeae
  Activity: 61.7%
[1]
  Activity: 46.8%
Neisseria meningitidis [2]
  Activity: 23.6%
[3]
  Activity: 5.8%
[4]; read-out: Ki
  Ki: 0.0456 µM
Neisseria meningitidis [5]
  Activity: 56.2%
Neisseria meningitidis [6]
  Activity: 4.2%

## O=C(NCc1cccnc1)C(CCc1ccccc1)COC(=O)[C@@H]1CCCCN1S(=O)(=O)Cc1ccccc1 (mixture of isomers)
Neisseria gonorrhoeae
  Activity: 63.5%
[1]
  Activity: 93.4%
Neisseria meningitidis [2]
  Activity: 47%
[3]
  Activity: 28.7%
[4]; read-out: Ki
  Ki: 0.207 µM
Neisseria meningitidis [5]
  Activity: 16.4%
Neisseria meningitidis [6]
  Activity: 8.4%

## O=C(NCc1cccnc1)C(CCc1cccnc1)OC(=O)[C@@H]1CCCCN1S(=O)(=O)c1ccccc1 (mixture of isomers)
Neisseria gonorrhoeae
  Activity: 52%
[1]
  Activity: 35.6%
Neisseria meningitidis [2]
  Activity: 82%
[3]
  Activity: 32.6%
[4]; read-out: Ki
  Ki: 4.16 µM
Neisseria meningitidis [5]
  Activity: 84.4%
Neisseria meningitidis [6]
  Activity: 32.8%

## CC(C)[C@H](OC(=O)C1CCCCN1S(=O)(=O)Cc1ccccc1)C(=O)NCc1cccnc1 (mixture of isomers)
Neisseria gonorrhoeae
  Activity: 65.1%
[1]
  Activity: 96.8%
Neisseria meningitidis [2]
  Activity: 25.2%
[3]
  Activity: 13.9%
[4]; read-out: Ki
  Ki: 1.08 µM
Neisseria meningitidis [5]
  Activity: 52.5%
Neisseria meningitidis [6]
  Activity: 10.9%

## C=CCOC(=O)[C@H](Cc1ccc(F)cc1)NC(=O)[C@@H]1CCCCN1S(=O)(=O)Cc1ccc(F)cc1
Neisseria meningitidis [2]
  Activity: inactive
[3]
  Activity: inactive
[4]
  Ki: Not Active
Neisseria meningitidis [6]
  Activity: inactive

## O=C(NCc1cccnc1)[C@@H](CCc1ccccc1)COC(=O)[C@@H]1CCCCN1S(=O)(=O)Cc1ccccc1
Neisseria gonorrhoeae
  Activity: 19.8%
[1]
  Activity: 70.6%
Neisseria meningitidis [2]
  Activity: 54%
[3]
  Activity: 14.8%
[4]; read-out: Ki
  Ki: 0.0153 µM
Neisseria meningitidis [5]
  Activity: 16%
Neisseria meningitidis [6]
  Activity: 11.1%

## O=C(NCCOC(=O)[C@@H]1CCCCN1S(=O)(=O)Cc1ccccc1)c1cccnc1
Neisseria gonorrhoeae
  Activity: 27.1%
[1]
  Activity: 68.9%
Neisseria meningitidis [2]
  Activity: 52.2%
[3]
  Activity: 50.3%
[4]; read-out: Ki
  Ki: 3.96 µM
Neisseria meningitidis [5]
  Activity: 41.1%
Neisseria meningitidis [6]
  Activity: 61.9%

## O=C(NCc1cccnc1)[C@H](CCc1ccccc1)COC(=O)[C@@H]1CCCCN1S(=O)(=O)Cc1ccccc1
Neisseria gonorrhoeae
  Activity: 53.6%
[1]
  Activity: 97.6%
Neisseria meningitidis [2]
  Activity: 83.5%
[3]
  Activity: 101%
[4]; read-out: Ki
  Ki: 3.38 µM
Neisseria meningitidis [5]
  Activity: 67.7%
Neisseria meningitidis [6]
  Activity: 70%

## CC(C)C[C@H](OC(=O)[C@@H]1CCCCN1S(=O)(=O)Cc1ccccc1)C(=O)NCc1cccnc1
Neisseria gonorrhoeae
  Activity: 19.1%
[1]
  Activity: 87.8%
Neisseria meningitidis [2]
  Activity: 35.6%
[3]
  Activity: 4.8%
[4]; read-out: Ki
  Ki: 0.0605 µM
Neisseria meningitidis [5]
  Activity: 13%
Neisseria meningitidis [6]
  Activity: 3.8%

## CC(C)C[C@H](NC(=O)[C@@H]1CCCCN1S(=O)(=O)Cc1ccc(F)cc1)C(=O)NCc1ccc[n+]([O-])c1
Neisseria gonorrhoeae
  Activity: 56.4%
[1]
  Activity: 61.5%
Neisseria meningitidis [2]
  Activity: 44.4%
[3]
  Activity: 21%
[4]; read-out: Ki
  Ki: 0.148 µM
Neisseria meningitidis [5]
  Activity: 71.3%
Neisseria meningitidis [6]
  Activity: 23.8%
